Numbered stars: 1 amine (or outer) side, 2 acyl side, 3 side chain; on linkers, the order of the positions; unused ones are H or OH. Bridge positions count the residues as written; N and C are the ends. Square brackets hold non-standard residues; d marks the D form. Peptide text beside a SMILES is read from it. ξ: configuration not given here. N(CH2CH2CO)Gly = O=C(CN(CCC(=O)[*:3])[*:1])[*:2]; Nphe = O=C(O)CNCc1ccccc1; Nleu = CC(C)CNCC(=O)O; ξP = O=C(O)C1CCCN1; Sar = CNCC(=O)O
What was measured:
[1] = test system: APP/PS1 Tg mice; assay: Plasma total cholesterol level; type: in vivo; conditions: 0.2 mg per mouse i.p. twice weekly for 4 months; p > 0.05
Protocol: (§1) The effect of CPO_Aβ17-21 P on Aβ deposition was tested in APP/PS1 Tg mice with plaque pathology. This AD mouse model develops plaque pathology from the age of 3 months. Animals were divided into two groups and received intraperitoneally (i.p.) injections of 0.2 mg of CPO_ Aβ17–21 P per mouse in sterile saline (n = 11, 5 male, 6 female) or saline alone (n = 10, 5 male, 5 female) as a control twice weekly for 4 months, beginning at age 3 months. During the treatment, veterinary staff monitored animals for any signs of toxicity, such as changes in body weight, physical appearance, and altered behavior. Animals were sacrificed a week after administration of the last treatment dose and behavioral testing. All mouse care and experimental procedures were compliant with guidelines of animal experimentation and were approved by the Institutional Animal Care and Use Committee at the New York University School of Medicine.
Plasma cholesterol level was measured by using a Cholesterol E kit (Wako Diagnostics, Richmond, VA)[45]. The Cholesterol E is an enzymatic colorimetric method for the quantitative determination of total cholesterol in the blood.

[2] = test system: SK-N-SH human neuroblastoma cells; assay: Toxicity rescue: apoE4-enhanced cytotoxicity of oligomeric Aβ42; type: cell-based; conditions: Aβ42 10 µM, apoE4 1 µM pre-incubated 6 hrs with inhibitor (Aβ12-28 P 4 µM; CPO_Aβ17-21 P 1 or 4 µM), three days
Protocol: Oligomeric Aβ42 was prepared as previously published. To prepare 100 µM oligomeric Aβ42 stock solution, 0.45 mg HFIP pretreated Aβ42 peptide was dissolved into 20 µl fresh dry dimethyl sulfoxide (DMSO) to form 5 mM Aβ42 DMSO solution; then 980 µl ice cold phenol-free Ham’s F-12 cell culture medium (with 146 mg/L L-Glutamine) was added to the Aβ42 DMSO solution followed by incubation at 4 °C for 24 hrs. CPO_ Aβ17–21 P or Aβ12-28 P was pre-incubated with apoE4 in DMEM medium containing 1% N-2 supplement for 6 hrs at 37 °C then mixed with freshly prepared oligomeric Aβ42 and added to SK-N-SH cells. For comparison, cells were incubated with Aβ42 alone and Aβ42 + apoE4, apoE alone, Aβ42 + CPO_Aβ17-21 P and Aβ42 + Aβ12-28 P as additional controls. The final concentration of peptides or peptoids was as follows: Aβ42 10 µM, apoE4 1 µM, Aβ12-28 P 4 µM and CPO_Aβ17-21 P 1 µM or 4 µM. Cells were under different treatments for three days and the cell viability was assessed as described above.

[3] = test system: apoE4 mediated Aβ40 aggregation; assay: Thioflavin T assay of apoE4 mediated Aβ40 aggregation; type: biochemical, human
Protocol: Peptide Aβ42 or peptoid CPO_Aβ17-21 P were incubated alone at a concentration of 100 µM over a period of 7–10 days at 37 °C in 100 mM Tris buffer (pH 7.4). […] In aggregation inhibition experiments, apoE4 was pre-incubated with CPO_Aβ17-21 P in a molar ratio of 1:2 for 6 hrs at 37 °C followed by addition to freshly reconstituted Aβ42 on ice (molar ratio 100:1:2, Aβ42:apoE4:peptoid). As a control, Aβ42 was also incubated with CPO_Aβ17-21 P at a molar ratio of 100:2. For peptide Aβ40 all the experiments were conducted under the same conditions as Aβ42 except the peptide concentration was 400 µM. The molar ratio of Aβ40:apoE4:CPO_Aβ17-21 P was 100:1:2. (400 µM Aβ40:4 µM apoE4:8 µM CPO_Aβ17-21 P). Fibril formation by the different peptides at various time points was evaluated by a standard Thioflavin-T assay according to previously published protocols, [33].The samples were diluted in buffer containing 50 mM glycine, 2 µM Thioflavin T pH 9.2, and read on a Molecular Devices SpectraMax M2 spectrophotometer (Sunnyvale, CA) at excitation and emission wavelengths 440 and 482 nm.

[4] = test system: APP/PS1 Tg mice; assay: Total amyloid burden by 6E10/4G8 immunohistochemistry; type: in vivo, mouse; conditions: one-tailed unpaired t-test
Protocol: as §1, with “All mouse care and experimental procedures were compliant with guidelines of animal experimentation and were approved by the Institutional Animal Care and Use Committee at the New York University School of Medicine.” left out
Mice were anesthetized with sodium pentobarbital (150 mg/kg, i.p.) and blood was collected via cardiac puncture and plasma was separated by centrifugation. […] To examine brain inflammation levels associated with treatment, we assessed the degree of astrocytosis with GFAP immunoreactivity and the degree of microgliosis with Iba1 and CD11b immunoreactivity as previously published, [37], [39], [40]. […]
Amyloid burden was measured by a Bioquant stereology (BIOQUANT Image Analysis Corporation, Nashville, TN) semi-automated image analysis system using a randomized and unbiased sampling scheme according to our previous published protocol, [19], [37], [39], [40]. […]

CC(C)CN1CC(=O)N2CCCC2C(=O)N(Cc2ccccc2)CC(=O)N(Cc2ccccc2)CC(=O)N(C)CC(=O)N(CC(N)=O)CCC1=O (stereo not drawn) [CPO_Aβ17-21 P] ([Nleu][ξP][Nphe][Nphe][Sar][N(CH2CH2CO)Gly]-NH2; lactam N-6)
plasma total cholesterol level, treated versus vehicle [1]: no significant difference | neutralization of apoE4-enhanced cytotoxicity of Aβ42 [2]: neutralized | inhibition of apoE4 mediated Aβ40 aggregation ([3]; 400 µM Aβ40:4 µM apoE4:8 µM peptoid, apoE4 pre-incubated with peptoid 6 hrs 37 °C, p = 0.0034): significant inhibition | Aβ40 fibril formation with peptoid versus Aβ40 alone ([3]; Aβ40 + peptoid without apoE4, molar ratio 100:2): no significant difference | total amyloid burden (6E10/4G8 immunoreactivity), cortex ([4]; p = 0.0226 versus vehicle): significant reduction | total amyloid burden (6E10/4G8 immunoreactivity), hippocampus ([4]; p = 0.0361 versus vehicle): significant reduction
